Test [1] has as its system Klebsiella aerogenes. The test can be described thus: Antibacterial activity against Enterobacter aerogenes NCIM 5139 at 100 ug/ml after 18 to 24 hr by agar well diffusion method. The format is functional. To be noted: read-out: IZ. Background: Agar diffusion results depend on both activity and mobility in agar.
The subject of test [2] is Escherichia coli. The test can be described thus: Antibacterial activity against Escherichia coli ATCC 2343 at 100 ug/ml after 18 to 24 hr by agar well diffusion method. The format is functional. The conditions noted are these: read-out: IZ.
For test [3], the system named is Candida albicans. The test can be described thus: Antifungal activity against Candida albicans at 100 ug/ml after 48 hr by agar well diffusion method. It is filed as functional. To be noted: read-out: IZ.
Test [4] concerns Bacillus subtilis. The test is described as follows: Antibacterial activity against Bacillus subtilis ATCC 6633 at 100 ug/ml after 18 to 24 hr by agar well diffusion method. It is filed as functional. The conditions noted are these: read-out: IZ.
The subject of test [5] is Staphylococcus aureus. The test can be described thus: Antibacterial activity against Staphylococcus aureus ATCC 29737 at 100 ug/ml after 18 to 24 hr by agar well diffusion method. To be noted: read-out: IZ. It is filed as functional.
For test [6], the system named is Aspergillus niger. The test can be described thus: Antifungal activity against Aspergillus niger at 100 ug/ml after 48 hr by agar well diffusion method. It is filed as functional. The conditions noted are these: read-out: IZ.
Test [7] deals with Aspergillus niger. The test can be described thus: Antifungal activity against Aspergillus niger at 30 ug/ml after 48 hr by agar well diffusion method. It is filed as functional. To be noted: read-out: IZ.
The subject of test [8] is Candida albicans. The test is described as follows: Antifungal activity against Candida albicans at 30 ug/ml after 48 hr by agar well diffusion method. To be noted: read-out: IZ. The format is functional.
Test [9] deals with Bacillus subtilis. The test can be described thus: microbe, parasite or virus in culture. The conditions noted are these: ATCC 6633, read-out: IZ.
Description: Antibacterial activity against Bacillus subtilis ATCC 6633 at 40 ug/ml after 18 to 24 hr by agar well diffusion method
In test [10] the test system is Staphylococcus aureus. The test is described as follows: microbe, parasite or virus in culture. The conditions noted are these: ATCC 29737, read-out: IZ.
Description: Antibacterial activity against Staphylococcus aureus ATCC 29737 at 40 ug/ml after 18 to 24 hr by agar well diffusion method
For test [11], the system named is Klebsiella aerogenes. The test can be described thus: Antibacterial activity against Enterobacter aerogenes NCIM 5139 at 40 ug/ml after 18 to 24 hr by agar well diffusion method. To be noted: read-out: IZ. It is filed as functional.
Test [12] concerns Escherichia coli. The test is described as follows: microbe, parasite or virus in culture. The conditions noted are these: ATCC 2343, read-out: IZ.
Description: Antibacterial activity against Escherichia coli ATCC 2343 at 40 ug/ml after 18 to 24 hr by agar well diffusion method

With `COC(=O)/C(=C/c1ccc(OC)c(OC)c1)Cn1nnn(-c2ccc(OC)cc2)c1=O`, the zone of inhibition at 100 µg/mL was 17 mm in the test with Klebsiella aerogenes [1] and 9 mm with Escherichia coli [2].

For `N#C/C(=C\c1ccccc1)Cn1nnn(-c2ccc(C(F)(F)F)cc2)c1=O`, the zone of inhibition at 100 µg/mL in the test with Candida albicans [3] was 15 mm; in the test with Bacillus subtilis [4], 23 mm; in the test with Staphylococcus aureus [5], 22 mm; in the test on Klebsiella aerogenes [1], 19 mm; in the test on Escherichia coli [2], 9 mm; in the test with Aspergillus niger [6] it was 16 mm.

With `CCOC(=O)/C(=C/c1ccc(Cl)cc1)Cn1nnn(-c2ccc(OC)cc2)c1=O`, the zone of inhibition at 100 µg/mL in the test on Candida albicans [3] was 12 mm; with Bacillus subtilis [4], 20 mm; with Staphylococcus aureus [5] it was 22 mm; with Aspergillus niger [6], 11 mm.

With `COC(=O)/C(=C/c1ccc([N+](=O)[O-])cc1)Cn1nnn(-c2ccc(C(F)(F)F)cc2)c1=O`, the zone of inhibition at 100 µg/mL with Candida albicans [3] amounted to 12 mm; in the test with Bacillus subtilis [4], 10 mm; with Staphylococcus aureus [5], 12 mm; with Klebsiella aerogenes [1] it was 8 mm; with Escherichia coli [2], 6 mm; in the test on Aspergillus niger [6], 11 mm.

In the case of `COc1ccc(-n2nnn(C/C(C#N)=C/c3ccc(C)cc3)c2=O)cc1`, the zone of inhibition at 100 µg/mL in the test on Candida albicans [3] turned out to be 19 mm; in the test with Bacillus subtilis [4] it was 16 mm; with Staphylococcus aureus [5] it was 19 mm; in the test on Klebsiella aerogenes [1], 16 mm; in the test on Escherichia coli [2], 14 mm; in the test with Aspergillus niger [6], 15 mm.

Take `Cc1ccc(/C=C(\C#N)Cn2nnn(-c3ccc(C(F)(F)F)cc3)c2=O)cc1`: the zone of inhibition at 100 µg/mL in the test with Klebsiella aerogenes [1] worked out at 6 mm; with Escherichia coli [2], 3 mm.

As for `CCOC(=O)/C(=C/c1ccc(Cl)cc1)Cn1nnn(-c2ccccc2)c1=O`, the zone of inhibition at 100 µg/mL turned out to be 18 mm with Candida albicans [3]; 20 mm in the test with Bacillus subtilis [4]; 23 mm in the test on Staphylococcus aureus [5]; 17 mm in the test with Klebsiella aerogenes [1]; 19 mm in the test with Escherichia coli [2]; 16 mm in the test on Aspergillus niger [6].

For `COc1ccc(/C=C(\C#N)Cn2nnn(-c3ccc(C(F)(F)F)cc3)c2=O)cc1OC`, the zone of inhibition at 100 µg/mL with Candida albicans [3] was found to be 16 mm; with Bacillus subtilis [4], 14 mm; in the test on Staphylococcus aureus [5], 16 mm; in the test with Klebsiella aerogenes [1], 12 mm; in the test with Escherichia coli [2], 7 mm; in the test on Aspergillus niger [6], 10 mm.

With `COC(=O)/C(=C/c1ccc(OC)cc1)Cn1nnn(-c2ccc(OC)cc2)c1=O`, the zone of inhibition at 100 µg/mL in the test with Candida albicans [3] amounted to 17 mm; in the test with Bacillus subtilis [4], 16 mm; in the test with Staphylococcus aureus [5], 17 mm; with Aspergillus niger [6] it was 16 mm.

Consider `COC(=O)/C(=C/c1ccc(F)cc1)Cn1nnn(-c2ccccc2)c1=O`, for which the zone of inhibition at 100 µg/mL with Bacillus subtilis [4] amounted to 6 mm; with Staphylococcus aureus [5], 7 mm; in the test on Klebsiella aerogenes [1] it was 3 mm; in the test with Escherichia coli [2] it was 4 mm; with Aspergillus niger [6], 3 mm.

Take `COC(=O)/C(=C/c1ccc(F)cc1)Cn1nnn(-c2ccc(OC)cc2)c1=O`: the zone of inhibition at 100 µg/mL with Candida albicans [3] was 17 mm; in the test on Bacillus subtilis [4], 19 mm; in the test on Staphylococcus aureus [5] it was 15 mm; in the test on Klebsiella aerogenes [1] it was 15 mm; in the test on Escherichia coli [2] it was 18 mm; with Aspergillus niger [6], 18 mm.

Turning to `N#C/C(=C\c1ccc(Cl)cc1)Cn1nnn(-c2ccc(C(F)(F)F)cc2)c1=O`, the zone of inhibition at 100 µg/mL in the test with Bacillus subtilis [4] was found to be 7 mm; in the test on Staphylococcus aureus [5], 13 mm; with Klebsiella aerogenes [1] it was 14 mm; in the test with Escherichia coli [2], 7 mm; in the test with Aspergillus niger [6], 5 mm.

In the case of `COc1ccc(-n2nnn(C/C(C#N)=C/c3ccccc3)c2=O)cc1`, the zone of inhibition at 100 µg/mL turned out to be 9 mm in the test with Candida albicans [3]; 12 mm in the test on Bacillus subtilis [4]; 17 mm with Staphylococcus aureus [5]; 11 mm with Klebsiella aerogenes [1]; 7 mm in the test on Escherichia coli [2]; 6 mm in the test on Aspergillus niger [6].

As for `COC(=O)/C(=C/c1ccc(Cl)cc1)Cn1nnn(-c2ccc(OC)cc2)c1=O`, the zone of inhibition at 100 µg/mL in the test on Candida albicans [3] came to 5 mm; in the test with Bacillus subtilis [4], 14 mm; in the test with Staphylococcus aureus [5] it was 7 mm; in the test with Klebsiella aerogenes [1] it was 6 mm; with Escherichia coli [2] it was 5 mm.

For the compound `COc1ccc(/C=C(\C#N)Cn2nnn(-c3ccc(OC)cc3)c2=O)cc1`, the zone of inhibition at 100 µg/mL in the test with Candida albicans [3] was 16 mm; in the test with Bacillus subtilis [4] it was 18 mm; with Staphylococcus aureus [5], 21 mm; in the test on Klebsiella aerogenes [1], 19 mm; in the test on Escherichia coli [2], 14 mm; in the test on Aspergillus niger [6], 14 mm.

In the case of `COC(=O)/C(=C/c1ccc([N+](=O)[O-])cc1)Cn1nnn(-c2ccc(OC)cc2)c1=O`, the zone of inhibition at 100 µg/mL worked out at 10 mm in the test with Bacillus subtilis [4], 12 mm in the test on Staphylococcus aureus [5], 8 mm in the test with Klebsiella aerogenes [1] and 6 mm in the test on Escherichia coli [2].

Turning to `COc1ccc(-n2nnn(C/C(C#N)=C/c3ccc(OC)c(OC)c3)c2=O)cc1`, the zone of inhibition at 100 µg/mL is 4 mm in the test on Candida albicans [3]; 11 mm with Bacillus subtilis [4]; 21 mm in the test with Staphylococcus aureus [5]; 16 mm with Klebsiella aerogenes [1]; 7 mm in the test on Escherichia coli [2].

Regarding `Cc1ccc(/C=C(\C#N)Cn2nnn(-c3ccccc3)c2=O)cc1`, the zone of inhibition at 100 µg/mL in the test on Candida albicans [3] is 7 mm; with Bacillus subtilis [4], 16 mm; in the test on Staphylococcus aureus [5], 17 mm; with Klebsiella aerogenes [1], 14 mm; in the test with Escherichia coli [2], 8 mm; in the test with Aspergillus niger [6], 4 mm.

Turning to `COc1ccc(/C=C(\C#N)Cn2nnn(-c3ccc(C(F)(F)F)cc3)c2=O)cc1`, the zone of inhibition at 100 µg/mL was determined as 16 mm with Candida albicans [3]; 11 mm in the test with Bacillus subtilis [4]; 16 mm in the test on Staphylococcus aureus [5]; 12 mm in the test on Klebsiella aerogenes [1]; 5 mm with Escherichia coli [2]; 11 mm with Aspergillus niger [6].

With `CCOC(=O)/C(=C/c1ccc(Cl)cc1)Cn1nnn(-c2ccc(C(F)(F)F)cc2)c1=O`, the zone of inhibition at 100 µg/mL in the test with Bacillus subtilis [4] came out at 15 mm; in the test on Staphylococcus aureus [5], 15 mm; in the test with Klebsiella aerogenes [1] it was 11 mm; in the test with Escherichia coli [2] it was 9 mm; in the test with Aspergillus niger [6] it was 9 mm.

On to `CCC(C)n1ncn(-c2ccc(N3CCN(c4ccc(OCC5COC(Cn6cncn6)(c6ccc(Cl)cc6Cl)O5)cc4)CC3)cc2)c1=O` (configuration not stated) [ITRACONAZOLE], for which the zone of inhibition at 30 µg/mL is 17 mm with Aspergillus niger [7] and 20 mm in the test with Candida albicans [8].

Turning to `O=C(O)c1cn(C2CC2)c2cc(N3CCNCC3)c(F)cc2c1=O` [CIPROFLOXACIN], the zone of inhibition at 40 µg/mL in the test on Bacillus subtilis [9] came to 10 mm; in the test with Staphylococcus aureus [10], 22 mm; with Klebsiella aerogenes [11], 24 mm; with Escherichia coli [12] it was 18 mm.

For the origin of these results see ChEMBL document CHEMBL3044896, “A facile route for the synthesis 1,4-disubstituted tetrazolone derivatives and evaluation of their antimicrobial activity” (2013).
